Assay results reported in patent publication US12285397B2, “Use of (s)-3-amino-4-(difluoromethylenyl) cyclopent-1-ene-1-carboxylic acid and related compounds, (1S,3S)-3-amino-4-(difluoromethylidene) cyclopentane-1-carboxylic acid and vigabatrin in the treatment of developmental disorders” (Ovid Therapeutics Inc., priority 2018, dated 2025).

Tests used:
Format in all cases: in vivo, mouse
[1] = tested on: Fmr1 KO2 mice; assay: Open field hyperactivity (locomotor activity), Fmr1 KO2 mice
Excerpt: (§1) Mutant fmr1 knockout (KO) mice recapitulate the Fragile X syndrome (FXS) phenotype and represent a preclinical model for assessment of putative drug treatments. In this study three different mice models of FXS were used: Fmr1 KO1 is the original Fmr1 knockout animal that carries an insertion in exon 5. See, e.g., Bakker C E, et al., The Dutch-Belgian Fragile X Consortium, Fmr1 knockout mice: A model to study fragile X mental retardation. Cell. 1994; 78:23-33 It is a protein null, although Fmr1 mRNA is still present. It is backcrossed to the C57/B16 strain. Subsequently, these mice were bred into different background strains, such as the FVB inbred mouse strain. Fmr1 KO2 is a null allele at Fmr1 generated by deletion of the promoter and first exon of Fmr1. See, Mientjes, E J et al., The generation of a conditional Fmr1 knock out mouse model to study Fmrp function in vivo. Neurobiology of Disease (2006) 21(3): 549-555. It is both protein and mRNA null. Backcrossed to the C57/B16 strain. Genotyping was accomplished using TransnetXY Automated Genotyping (http://www.transnetyx.com/). TRANSNETYX, INC., 8110 Cordova Rd. Suite 119, Cordova, TN 38016, USA.
(§2) The mice were housed in plastic cages (35×30×12 cm), 5 in each and habituated to the animal facilities for at least a week before test. The room temperature (21±2° C.), relative humidity (55±5%), a 12-h light-dark cycle (lights on 7 a.m.-7 p.m.) and air exchange (16 times per h) were automatically controlled. The animals had free access to commercial food pellets and water. Testing was conducted during the light phase. Testing was conducted on Fmr1 knockout mice and their wild-type (WT) littermates. Ten mice per treatment group, 14 weeks of age, were used for behavioral experiments. Experiments were conducted in line with the requirements of the UK Animals (Scientific Procedures) Act, 1986.
(§3) Oral dosing was performed by using 1.5-in. curved, 20-gauge, stainless steel feeding needles with a 2.25-mm ball (Braintree Scientific, Braintree, MA). Each gavage treatment was given in 0.5% methyl cellulose (Methyl Cellulose M0512, Sigma-Aldrich, St Louis, MO) used as vehicle with or without treatment compounds. The same veterinarian, blinded to the treatment groups, performed the procedure, and documented animal reactions to oral gavage. Reactions considered to indicate stress were defined as excessive struggling during gavage or abnormal behavior after gavage (labored breathing, frozen stance, exaggerated jumping, shuddering, and hunched posture).
(§4) For experiments all mice were tested once in the same apparatus. Prior to testing, mice not in the study were placed in the apparatus for some minutes before the experiment. The apparatus was then cleaned with moist and dry tissues before testing each mouse. The aim was to create a low but constant background mouse odor for all experimental subjects. All experiments were conducted with the experimenters blind to genotype and drug treatment during all testing and data analysis. Separate investigators prepared and coded dosing solutions, allocated the mice to the study treatment groups, dosed the animals, and collected the behavioral data. Data were analyzed by one-way analysis of variance (ANOVA) followed by post-hoc comparisons where appropriate using Tukey's Multiple Comparison Test. Data are represented as the mean and standard error of the mean (SEM).
1. […]

[2] = tested on: Fmr1 KO2 mice; assay: Open field repetitive behavior: counter revolutions (CCW), Fmr1 KO2 mice
Excerpt: as §1, §2, §3, §4
2. Open Field Repetitive Behaviors (stereotypies: anticlockwise circling (aka counter revolutions) (CCW) and self grooming). Fmr1 KO2 mice display the autism-like phenotypes of repetitive behaviors like CCW, self grooming and stereotypy that typically involves behaviors such as head bobbing. […]

[3] = tested on: Fmr1 KO1 mice; assay: Tests of daily living (nesting), Fmr1 KO1 mice
Excerpt: as §1, §2, §3, §4
3. Tests of daily living (Nesting): FIG. 11 is a bar graph illustrating nest building quality by wild-type mice administered 0.5% methyl cellulose vehicle, Fmr1 KO1 mice administered 0.5% methyl cellulose, Fmr1 KO1 mice administered (S)-3-amino-4-(difluoromethylenyl) cyclopent-1-ene-1-carboxylic acid 0.01 mg/kg, Fmr1 KO1 mice administered (S)-3-amino-4-(difluoromethylenyl) cyclopent-1-ene-1-carboxylic acid 0.05 mg/kg, and Fmr1 KO1 mice administered (S)-3-amino-4-(difluoromethylenyl) cyclopent-1-ene-1-carboxylic acid 0.1 mg/kg.

[4] = tested on: Fmr1 KO1 transgenic mice in an FVB background; assay: Audiogenic seizures (AGS), Fmr1 KO1 mice in FVB background; details: for Incidence / Respiratory arrest / Seizure / Wild running: audio stimulus 60 seconds at 124 db
Description: 4. Audiogenic Seizures (AGS) are reflex seizures generated by loud noises in genetically predisposed mice. The Fmr1 KO1 mice display audiogenic seizures depending on age and background strain, the Fmr1 KO1 mouse on the FVB background is characterized by an increased AGS susceptibility at all ages and is considered a good animal model for epilepsy. The effect of (S)-3-amino-4-(difluoromethylenyl) cyclopent-1-ene-1-carboxylic acid was tested on AGS Fmr1 KO1 transgenic mice in an FVB background. Observable criteria are: 1. normal behavior, 2. wild running, 3. seizure, and 4. respiratory arrest.
(S)-3-amino-4-(difluoromethylenyl) cyclopent-1-ene-1-carboxylic acid was administered to Fmr1 KO1 mice, males, age 2 months in the following amounts: 0.01 mg/kg, 0.05 mg/kg, and 0.1 mg/kg. Positive controls were administered 2-Methyl-6-(phenylethynyl)pyridine (MPEP), a mGluR5 antagonist, 30 mg/kg by i.p. and tested 20 minutes after injection. Audio stimulus was administered continuously for 60 seconds at 124 db.

N[C@H]1C=C(C(=O)O)CC1=C(F)F [Compound, (S)-3-Amino-4-(difluoromethylenyl)cyclopent-1-ene-1-carboxylic acid]
Open field locomotor activity (total distance traveled), WT-Veh vs. KO2-Compound: Significant? ([1]; 0.01 mg/Kg PO QD seven days): Yes | Open field locomotor activity (total distance traveled), WT-Veh vs. KO2-Compound: Significant? ([1]; 0.05 mg/Kg PO QD seven days): Yes | Open field locomotor activity (total distance traveled), WT-Veh vs. KO2-Compound: Significant? ([1]; 0.1 mg/Kg PO QD seven days): No | Open field locomotor activity (total distance traveled), WT-Veh vs. KO2-Compound: Summary ([1]; 0.1 mg/Kg PO QD seven days): ns | Open field counter revolutions (CCW), WT-Veh vs. KO2-Compound: Significant? ([2]; 0.01 mg/Kg PO QD seven days): Yes | Open field counter revolutions (CCW), WT-Veh vs. KO2-Compound: Significant? ([2]; 0.05 mg/Kg PO QD seven days): No | Open field counter revolutions (CCW), WT-Veh vs. KO2-Compound: Summary ([2]; 0.05 mg/Kg PO QD seven days): ns | Open field counter revolutions (CCW), WT-Veh vs. KO2-Compound: Significant? ([2]; 0.1 mg/Kg PO QD seven days): No | Open field counter revolutions (CCW), WT-Veh vs. KO2-Compound: Summary ([2]; 0.1 mg/Kg PO QD seven days): ns | Effect on CCW revolutions phenotype (FIG. 2) ([2]; 0.05 and 0.1 mg/Kg): rescued | Nesting, WT-Veh vs. KO1-Compound: Significant? ([3]; 0.01 mg/Kg PO QD seven days): Yes | Nesting, WT-Veh vs. KO1-Compound: Significant? ([3]; 0.05 mg/Kg PO QD seven days): No | Nesting, WT-Veh vs. KO1-Compound: Summary ([3]; 0.05 mg/Kg PO QD seven days): ns | Nesting, WT-Veh vs. KO1-Compound: Significant? ([3]; 0.1 mg/Kg PO QD seven days): No | Nesting, WT-Veh vs. KO1-Compound: Summary ([3]; 0.1 mg/Kg PO QD seven days): ns | Effect on nesting behavior (FIG. 11) ([3]; 0.05 and 0.1 mg/Kg): rescues poor nesting behavior | Incidence ([4]; 0.01 mg/kg): 100% | Respiratory arrest ([4]; 0.01 mg/kg): 7/10 | Seizure ([4]; 0.01 mg/kg): 10/10 | Wild running ([4]; 0.01 mg/kg): 10/10 | Incidence ([4]; 0.05 mg/kg): 100% | Respiratory arrest ([4]; 0.05 mg/kg): 5/10 | Seizure ([4]; 0.05 mg/kg): 8/10 | Wild running ([4]; 0.05 mg/kg): 10/10 | Audiogenic seizure susceptibility reduced to ([4]; 0.1 mg/Kg, Fmr1 KO1 mice (FVB background)): 40% | Incidence ([4]; 0.1 mg/kg): 40% | Respiratory arrest ([4]; 0.1 mg/kg): 4/10 | Seizure ([4]; 0.1 mg/kg): 5/10 | Wild running ([4]; 0.1 mg/kg): 4/10
